Data set [1] deals with HIV-1 IIIB (cell-free virus). Description: microbe, parasite or virus in culture. Type of data set: cell-based. The following applies: for IC50: read-out: IC50 Cell-Free Virus IIIB.
Data set [2] concerns CCRF-CEM cell line. The class given is cell-based, human. Here is the method: Cells were incubated with 10 μM of DMSO, FAM, KPH-1.5 and KPH-1.6 for 1 h and then imaged using a light microscope (ZEISS Axioplan 2) equipped with transmitted light microscopy with a differential-interference contrast method and an Achroplan 40× objective. […] The results further confirm the higher cellular uptake of KPH-1.6, a fatty acyl derivative of FLT, in comparison to KPH-1.5 and FAM alone. Similar results were also observed with fluorescein-substituted derivative of 3TC.

The test system of data set [3] is Cell-associated HIV-1, SupT1 (IIIB). Description: Single-round infection assay, cell-associated virus SupT1 (IIIB). The class given is cell-based.
Data set [4] can be described thus: Cytotoxicity (Tables 4, 6, 8).
In data set [5] the test system is HIV-1 BaL (cell-free virus). Description: Single-round infection assay, cell-free virus BaL. Type of data set: cell-based. The following applies: for IC50 / EC50: Human immunodeficiency virus 1, BAL; for IC50: read-out: IC50 Cell-Free Virus BaL.
In data set [6] the test system is H. ducreyi Strain HMC56. Description: Antibacterial activity (MIC), strain HMC56. The class given is cell-based, Haemophilus ducreyi.
Data set [7] has as its system H. ducreyi Strain HMC 64. Description: Antibacterial activity (MIC), strain HMC 64. The class given is cell-based, Haemophilus ducreyi.
Data set [8] deals with H. ducreyi Strain HMC 62. Description: Antibacterial activity (MIC), strain HMC 62. Type of data set: cell-based, Haemophilus ducreyi.
The subject of data set [9] is Multidrug resistant virus 7324-1. Description: Antiviral activity against multidrug resistant HIV, RT endpoint. Type of data set: cell-based, HIV-1.
Data set [10] deals with HIV-1 clinical isolate R5 = 92TH014. Description: Antiviral activity against HIV-1 clinical isolate R5, RT endpoint. Type of data set: cell-based.
Data set [11] is described as follows: in vitro.
In data set [12] the test system is HIV-1 clinical isolate R5 = 92TH014. Description: Antiviral activity against HIV-1 clinical isolate R5, p24 level (ELISA). The following applies: Table 5, 6 h incubation then 6 days. The class given is cell-based.
The subject of data set [13] is Multidrug resistant virus 7324-1. Description: Antiviral activity against multidrug resistant HIV-1 clinical isolate, p24 level (ELISA). The class given is cell-based. The following applies: Table 5, MDR = 7324-1, 6 h incubation then 6 days.
[14] abbreviates: Table 1, 2 h incubation, wash, 48 h culture.
Where [15] appears, read: [Haemophilus] ducreyi, read-out: MIC (minimum inhibitory concentration).
The mark [16] stands for this setting: Table 2, MDR = 7324-1, RT endpoint, 6 h incubation then 6 days.
[17] abbreviates: Table 2, 6 h incubation then 6 days.
[18] abbreviates: Table 8, 2 h incubation, wash, 48 h culture.
Setting [19] is: Table 8, 2 h incubation, wash, 48 h culture, read-out: EC50 Cell-free HIV-1 (IIIB).

≈ marks a conversion by molar mass, not a printed value. Read-outs that look alike come from different tables or passages of the source.

Usually IC50 stands for the concentration at which inhibition is half-maximal. By EC50 is commonly meant the concentration needed to bring the measured effect to its halfway point.

On to “3′-fluoro-2′,3′-dideoxy-5′-O-(12-(N-5(6)carboxylfluoresceinaminododecanoyl)thymidine”, for which, in data set [1] (setting [14]), the “IC50 Cell-Free Virus IIIB” value is 4.3 µg/mL. Further, in data set [2], the “cell fluorescence by microscopy” value is reported as “showed fluorescence”.
Regarding “5(6)-carboxyfluorescein [FAM, reference compound]”, in [2], the “cell fluorescence by microscopy” value was “no significant fluorescence”.
On to `Nc1ccn([C@@H]2CS[C@H](CO)O2)c(=O)n1` [2′,3′-dideoxy-3′-thiacytidine, reference compound], for which the IC50 came out at 7.5 µg/mL (≈ 32.7 µM) in data set [1] (Human immunodeficiency virus 1, IIIB); 18.4 µg/mL (≈ 80.3 µM) in data set [3] (Human immunodeficiency virus 1, IIIB, SUP-T1, read-out: IC50 Cell-Associated Virus SupT1 (IIIB)); 2.6 µg/mL (≈ 11.3 µM) in data set [5]. For the same compound, the CC50 in data set [4] was greater than 100 µg/mL.
`CCCCCSCCCCCCCC(=O)OC[C@H]1O[C@@H](n2cc(C)c(=O)[nH]c2=O)C[C@@H]1N=[N+]=[N-]` [3′-azido-2′,3′-dideoxy-5′-O-(9-thiatertradecanoyl)thymidine]: the “IC50 Cell-Free Virus IIIB” value in data set [1] (setting [14]) is 3.7 µg/mL (≈ 7.47 µM). Also, the “MIC (minimum inhibitory concentration)” value in data set [6] stood at 250 µg/mL (≈ 504 µM); in [7] it was 750 µg/mL (≈ 1510 µM); in data set [8], 250 µg/mL (≈ 504 µM). The “IC50 Cell-Associated Virus SupT1 (IIIB)” value in data set [3] (setting [14]) was determined as 42.0 µg/mL (≈ 84.7 µM). Further, in [5] (setting [14]), the “IC50 Cell-Free Virus BaL” value is 8.1 ( μg/mL.
As for `Cc1cn([C@H]2C[C@H](N=[N+]=[N-])[C@@H](CO)O2)c(=O)[nH]c1=O` [3′-azido-2′,3′-dideoxythymidine (AZT), 3′-azido-2′,3′-dideoxythymidine, reference compound], the IC50 was 9.2 µg/mL (≈ 34.4 µM) in data set [1] (Human immunodeficiency virus 1, IIIB, Table 1, 2 h incubation, wash, 48 h culture); 0.33 µg/mL (≈ 1.23 µM) in [9] (Human immunodeficiency virus 1); 0.02 µg/mL (≈ 0.0748 µM) in data set [10] (Human immunodeficiency virus 1, Table 2, 6 h incubation then 6 days, read-out: IC50); greater than 100 µg/mL in data set [3] (Human immunodeficiency virus 1, IIIB, SUP-T1, Table 1, 2 h incubation, wash, 48 h culture, read-out: IC50 Cell-Associated Virus SupT1 (IIIB)); 0.8 µg/mL (≈ 2.99 µM) in data set [5] (setting [14]). Moreover, the EC50 is 2.4 µg/mL in [1] (Human immunodeficiency virus 1, IIIB, Table 4, read-out: EC50 Cell-Free Virus IIIB); greater than 100 µg/mL in data set [3] (Human immunodeficiency virus 1, IIIB, SUP-T1, Table 4); 4.2 µg/mL (≈ 15.7 µM) in data set [5] (Table 4). The MIC was 125 µg/mL (≈ 468 µM) in data set [6] (setting [15]), 500 µg/mL (≈ 1870 µM) in [7] (setting [15]) and 750 µg/mL (≈ 2810 µM) in data set [8] (setting [15]). The compound also yielded a CC50 in data set [11] greater than 100 µg/mL.
Consider `Cc1cn([C@H]2C[C@H](F)[C@@H](COC(=O)CCCCCCCCCCCN=[N+]=[N-])O2)c(=O)[nH]c1=O` [3′-fluoro-2′,3′-dideoxy-5′-O-(12-azidododecanoyl)thymidine], for which the “IC50 Cell-Free Virus IIIB” value in [1] (setting [14]) was determined as 0.4 µg/mL (≈ 0.856 µM). For the same compound, the IC50 in data set [9] (setting [16]) and in data set [10] (setting [17]) was 0.003 µg/mL (≈ 0.00642 µM) throughout. The results for the “MIC (minimum inhibitory concentration)” value in data set [6], in [7] and in data set [8] were 500 µg/mL (≈ 1070 µM), 125 µg/mL (≈ 267 µM) and 125 µg/mL (≈ 267 µM), respectively. Further, in data set [3] (setting [14]), the “IC50 Cell-Associated Virus SupT1 (IIIB)” value came out at 5.9 µg/mL (≈ 12.6 µM). The “IC50 Cell-Free Virus BaL” value in [5] (setting [14]) was 0.2 µg/mL (≈ 0.428 µM).
On to `CCSCCCCCCCCCCCC(=O)OC[C@H]1O[C@@H](n2cc(C)c(=O)[nH]c2=O)C[C@@H]1F` [3′-fluoro-2′,3′-dideoxy-5′-O-(13-thiapentadecanoyl)thymidine], for which the “IC50 Cell-Free Virus IIIB” value in [1] (setting [14]) amounted to 0.5 µg/mL (≈ 1.03 µM). The IC50 in [9] (setting [16]) and in data set [10] (setting [17]) was 0.002 µg/mL (≈ 0.00411 µM) in each case. Moreover, the “MIC (minimum inhibitory concentration)” value in [6], in data set [7] and in [8] was 125 µg/mL (≈ 257 µM) in each case. In data set [3] (setting [14]), the “IC50 Cell-Associated Virus SupT1 (IIIB)” value was found to be 1.1 µg/mL (≈ 2.26 µM). Also, in [5] (setting [14]), the “IC50 Cell-Free Virus BaL” value is less than 0.1 µg/mL.
Consider `CCCCCCCCCCCCCC(=O)OC[C@H]1O[C@@H](n2cc(C)c(=O)[nH]c2=O)C[C@@H]1F` [3′-fluoro-2′,3′-dideoxy-5′-O-(tetradecanoyl)thymidine], for which the “IC50 Cell-Free Virus IIIB” value in [1] (setting [14]) was 0.3 µg/mL (≈ 0.66 µM). The half-inhibitory concentration (IC50) in data set [9] (setting [16]) was 0.002 µg/mL (≈ 0.0044 µM); in data set [10] (setting [17]), 0.003 µg/mL (≈ 0.0066 µM). Also, the “IC50 Cell-Associated Virus SupT1 (IIIB)” value in data set [3] (setting [14]) stood at 2.9 µg/mL (≈ 6.38 µM). The “IC50 Cell-Free Virus BaL” value in [5] (setting [14]) worked out at 0.5 µg/mL (≈ 1.1 µM).
`CCCCCCCCCCCCCC(=O)OCC(NC(C)=O)C(=O)NCCC(=O)NC(CCC(=O)OC[C@H]1O[C@@H](n2cc(C)c(=O)[nH]c2=O)C[C@@H]1F)C(=O)NCC(=O)O` (stereo partly drawn) [KPH-94, Myristoylserine-FLT(glutamyl)glycine]: in data set [1] (setting [18]), the “EC50 Cell-free HIV-1 (IIIB)” value stood at 9.3 µg/mL (≈ 11.1 µM). Also, the EC50 in data set [1] (setting [19]) came out at 11.1 µM. The CC50 in data set [4] was greater than 100 µg/mL.
Regarding `CCCCCCCCCCCCCC(=O)OCC(NC(C)=O)C(=O)NCCC(=O)NC(CCC(=O)OC[C@H]1O[C@@H](n2cc(C)c(=O)[nH]c2=O)C[C@@H]1N=[N+]=[N-])C(=O)NCC(=O)O` (stereo partly drawn) [KPH-95, Myristoylserine-AZT(glutamyl)glycine], the “EC50 Cell-free HIV-1 (IIIB)” value in [1] (setting [18]) turned out to be 54.5 µg/mL (≈ 63.1 µM). Moreover, the EC50 in data set [1] (setting [19]) amounted to 63.1 µM. The compound also displayed a CC50 in data set [4] greater than 100 µg/mL.
Regarding `Cc1ccc(C(=O)Nc2ccc(S(=O)(=O)O)c3cc(S(=O)(=O)O)cc(S(=O)(=O)O)c23)cc1NC(=O)c1cccc(NC(=O)Nc2cccc(C(=O)Nc3cc(C(=O)Nc4ccc(S(=O)(=O)O)c5cc(S(=O)(=O)O)cc(S(=O)(=O)O)c45)ccc3C)c2)c1` [Suramin, reference compound], the EC50 in [1] (Human immunodeficiency virus 1, IIIB, read-out: EC50 Cell-Free Virus IIIB) was 49.1 µg/mL; in data set [5] (Table 6), 1 µg/mL (≈ 0.771 µM). Also, the CC50 in [11] was greater than 100 µg/mL.
“Sodium Cellulose Sulfate-Acetate-AZT (1.73%) [CS-Ac-AZT]”: the “EC50 Cell-Free Virus IIIB” value in [1] (Table 4) was 2.5 µg/mL. In addition, the “potency against cell-free virus relative to AZT, in moles” value in data set [1] (based on CS ~2×10^6 Daltons) was 5 orders of magnitude. In addition, the “EC50 Cell-Associated Virus SupT1-IIIB” value in data set [3] (Table 4) worked out at 5.6 µg/mL. In addition, the 50% inhibitory concentration (IC50) was determined as 3.52 µg/mL in [12] and 4.22 µg/mL in [13]. The “EC50 Cell-Free Virus BaL” value in data set [5] (Table 4) is 8.1 µg/mL.
“Sodium Cellulose Sulfate-Acetate-FLT (1.45%) [CS-Ac-FLT]”: the “EC50 Cell-Free Virus IIIB” value in data set [1] (Table 4) turned out to be 2.3 µg/mL. The “EC50 Cell-Associated Virus SupT1-IIIB” value in data set [3] (Table 4) worked out at 5.8 µg/mL. Also, the IC50 was 2.67 µg/mL in data set [12] and 0.50 µg/mL in data set [13]. Besides, in [5] (Table 4), the “EC50 Cell-Free Virus BaL” value came to 1.5 µg/mL.

For the origin of these results see patent publication US9296776B2, “Substituted nucleoside derivatives with antiviral and antimicrobial properties” (Eastern Virginia Medical School, priority 2007, dated 2016).
